Results published in US20210078958A1, “QUINAZOLINE DERIVATIVE AND USE THEREOF” (MEDSHINE DISCOVERY INC., priority 2017, published 2021).

System: subcutaneous xenograft tumor of human gastric cancer NCI-N87 cells
Assay: Assay Example 5: in vivo pharmacodynamics, NCI-N87 xenograft
Design: species or system BALB/c nude mouse
Settings: 0.5 mg/kg
Method: Purpose of the assay: to evaluate the in vivo efficacy of test compounds disclosed herein on subcutaneous xenograft tumor of human gastric cancer NCI-N87 cells in a BALB/c nude mouse model.
Animals of the assay: female BALB/c nude mice, 6-8 weeks old, weighing 18-22 grams; supplier: shanghai sippr bk laboratory animals Ltd.
Human gastric cancer NCI-N87 cells were cultured in monolayer in vitro. The culture conditions were RPMI-1640 medium plus 10% fetal bovine serum, 100 U/mL penicillin, 100 μg/mL streptomycin, 37° C., 5% CO2. The passaging was performed by conventional digestion with trypsin-EDTA twice a week. When the cell saturation was 80%-90%, the cells were collected, counted and inoculated.
0.2 mL (10×10^6) of NCI-N87 cells (PBS+Matrigel, 1:1) were inoculated subcutaneously on the right back of each mouse. When the average tumor volume reached 156 mm^3, administration to each group was started.
The test compounds were formulated into a 0.05 mg/mL clear solution in the solvents of 10% NMP (N-methylpyrrolidone)+10% ethylene glycol stearate+80% water.
The assay index is to investigate whether tumor growth is inhibited, delayed or cured. Tumor diameter was measured twice a week with a vernier caliper. The calculation formula of tumor volume is: V=0.5a×b^2, wherein a and b represent the long and short diameters of tumor, respectively.
The antitumor efficacy of the compounds were evaluated by TGI (%) or tumor proliferation rate T/C (%). TGI (%) reflects the tumor growth inhibition rate. TGI (%) is calculated as follows: TGI (%)=[1−(average tumor volume at the end of administration for a certain treatment group−average tumor volume at the beginning of administration for this treatment group)/(average tumor volume at the end of treatment for a solvent control group−average tumor volume at the beginning of administration for this solvent control group)]×100%.
Tumor proliferation rate T/C (%): the calculation formula is as follows: T/C (%)=average tumor volume at the end of administration for a certain treatment group/average tumor volume at the end of treatment for the solvent control group×100%.
Statistical analysis included the mean and standard error (SEM) of tumor volume at each time point in each group (See Table 5-1 for specific data). […] The comparison between two groups was analyzed by T-test, and the comparison among three or more groups was analyzed by one-way ANOVA. […] All data analysis was carried out with SPSS 17.0. p<0.05 was considered a significant difference.

## C=CC(=O)N1[C@@H]2CC[C@H]1C[C@H](Nc1cc3c(Nc4ccc(Cl)c(Cl)c4F)ncnc3cc1OC)C2 [Example 38]
NCI-N87 xenograft, Mean + SEM
  Tumor volume (mm^3) (Day 21): 63 ± 10 mm^3
Day 21
  T/C (%): 10.69%
  TGI (%): 119.41%
